# Results as given in US20190216731A1, “PROCESS FOR PROVIDING PARTICLES WITH REDUCED ELECTROSTATIC CHARGES” (Chiesi Farmaceutici S.p.A., priority 2010, published 2019).
# Experiments:
# [1] = Dispersive surface energy by inverse gas chromatography (IGC); type: physicochemical; details: IGC at 25° C., 0% RH, FIG. 1
# Description: The surface energies were measured by inverse gas chromatography (IGC). All analyses were carried out using the SMS-iGC 2000 and the SMS-iGC v1.3 standard analysis suite and SMS-iGC v1.21 advanced analysis suite of macros. A flame ionization detector (FID) was used to determine the retention times. The samples were stored in a cold (˜5° C.), dry environment until run on the IGC. For all experiments, the powders were packed into a silanized glass column (300 mm long by 4 mm diameter) using the SMS Column Packing Accessory. All columns were analyzed 3 times sequentially to check for irreversible chemisorption effects and equilibrium after preconditioning.
# In this study, the columns were pre-treated for 2 hours at 25° C. and 0% RH in a helium carrier gas to condition the sample. Then, the surface energy measurements were performed at 25° C. (3 times sequentially with a 2-hour conditioning between runs). All experiments were carried out at 10 sccm total flow rate of helium, and injection vapor concentration of 0.03 P/0 for all elutants.
# [2] = cited from earlier work
Molecule,dispersive surface energy [1] [mJm^−2],"dispersive surface energy, values reported in the literature [2] [mJm^−2]"
"O.OC[C@H]1O[C@@H](O[C@H]2[C@H](O)[C@@H](O)[C@@H](O)O[C@@H]2CO)[C@H](O)[C@@H](O)[C@H]1O [Meggle D30 reference, α-lactose monohydrate]",41.8,41
magnesium stearate,42.1,41
